This assay deals with HFF-1 cells. As to the kind of experiment: Cytoprotective/viability restorative effect against tbOH damage (MTT). The format is cell-based, human. The settings on record: 100 μM, positive control in serum free medium. The method, then: Cytoprotective viability restorative effects of 10×CM generated by process 2 against oxidative damage in dermal fibroblast cells upon treatment with 300 μM of tert-butyl hydroperoxide (tbOH) for 2 h and post treatment of damaged fibroblast with 10×CM for 48 h is evaluated by MTT assay. Treatment of HFF-1 cells with 300 μM of tbOH leads to 35% decrease in cellular viability in SFM treated as compared to untreated cells. The cytoprotection obtained with 10×CM is 11%, 18% and 12% higher at the doses of 5%, 10% and 50% respectively as compared to respective 10× control medium treated cells against tbOH damage (FIG. 10). In this assay, serum free medium with ascorbic acid (SFM+AA) is used as a positive control. Treatment of HFF-1 cells with 100 μM ascorbic acid (AA) also leads to 12% cytoprotection against tbOH damage. […] 10×CM has shown a trend in the ability to restore the viability of oxidative stressed fibroblast cells at the concentrations 5%, 10% and 50%. Maximum activity is observed at 10% 10×CM.

Molecules are shown by their SMILES.

As for `O=C1O[C@H]([C@@H](O)CO)C(O)=C1O` [ascorbic acid], the “cytoprotection against tbOH damage” value is listed as 12%.
